The source of these data is PMC9225045, “Purification and Characterization of a Novel α-L-Rhamnosidase from Papiliotrema laurentii ZJU-L07 and Its Application in Production of Icariin from Epimedin C” (Journal of Fungi, 2022).

Where two headings read alike, the source gives them in different places.

The test system of test [1] is T1, α-L-rhamnosidase from P. laurentii ZJU-L07.
T1 construct: gene EC 3.2.1.40
As to conditions: 1.0-5.0 mM substrate; pH and temperature of the kinetic assay not stated separately. The source says: Lineweaver-Burk; HPLC for epimedin C and icariin on α-L-rhamnosidase from P. laurentii ZJU-L07 | When epimedin C was used as a nature substrate to determine the kinetic parameters

Test [2] relates to T2, α-L-rhamnosidase from P. laurentii ZJU-L07.
T2 construct: gene EC 3.2.1.40; native intracellular enzyme purified from cells of the soil isolate (strain mutagenized by gamma rays and nitrosoguanidine); 100 kDa by SDS-PAGE
Kind of test: p-nitrophenol release at […] nm, Lineweaver-Burk. The format is biochemical, Papiliotrema laurentii. As to conditions: pH 7.0 citric acid-Na2HPO4, 55 °C (standard assay); 2.0-10.0 mM substrate.

`COc1ccc(-c2oc3c(CC=C(C)C)c(O[C@@H]4O[C@H](CO)[C@@H](O)[C@H](O)[C@H]4O)cc(O)c3c(=O)c2O[C@@H]2O[C@@H](C)[C@H](O)[C@@H](O)[C@H]2O[C@@H]2O[C@@H](C)[C@H](O)[C@@H](O)[C@H]2O)cc1` [epimedin C]: the Michaelis-Menten constant (Km) in test [1] was 3280 µM.

For `C[C@@H]1O[C@@H](Oc2ccc([N+](=O)[O-])cc2)[C@H](O)[C@H](O)[C@H]1O` [p-nitrophenyl-α-L-rhamnopyranoside], the Km in test [2] was determined as 1380 µM.
